Reference: US12559506B2, “Indazole based compounds and associated methods of use” (Arvinas Operations, Inc., priority 2021, dated 2026)
Like-named read-outs stand apart in the source and are kept apart here.

Legend:
wildtype LRRK2 = target: T1, wildtype LRRK2 (Homo sapiens, UniProt Q5S007); assay: LRRK2 degradation assay, HiBit-tagged wildtype LRRK2 expressed from plasmid in HEK293 cells (Nano-Glo Dual-Luciferase); format: cell-based; conditions: 24 hours; for Dmax: read-out: **WT Dmax (%); for DC50: read-out: *WT DC50
T1 construct: expressed in transfected cells; host or cells: HEK293 (ATCC CRL-1573), transient transfection, mammalian expression vector with ubiquitin promoter
How it was run: (§1)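 HEK293 cells co-transfected with C-terminal HiBiT-tagged LRRK2 (WT or G2019S, ubiquitin promoter) and firefly luciferase, then dosed 24 h at 37 °C. HiBiT/firefly ratio normalized to DMSO median; DC50 and Dmax from per-plate curve fits, six replicates over two days.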

G2019S LRRK2 = target: T2, G2019S LRRK2 (Homo sapiens, UniProt Q5S007, G2019S); assay: LRRK2 degradation assay, HiBit-tagged G2019S LRRK2 expressed from plasmid in HEK293 cells (Nano-Glo Dual-Luciferase); format: cell-based; conditions: 24 hours
T2 construct: expressed in transfected cells; host or cells: HEK293 (ATCC CRL-1573), transient transfection, mammalian expression vector with ubiquitin promoter
How it was run: as §1

[1] = HiBit-tagged wildtype LRRK2 in HEK293 cells
[2] = HiBit-tagged G2019S LRRK2 in HEK293 cells
[3] = HiBit-tagged wildtype LRRK2, HEK293 cells
[4] = HiBit-tagged G2019S LRRK2, HEK293 cells

T2 sequence (Q5S007 whole entry G2019S): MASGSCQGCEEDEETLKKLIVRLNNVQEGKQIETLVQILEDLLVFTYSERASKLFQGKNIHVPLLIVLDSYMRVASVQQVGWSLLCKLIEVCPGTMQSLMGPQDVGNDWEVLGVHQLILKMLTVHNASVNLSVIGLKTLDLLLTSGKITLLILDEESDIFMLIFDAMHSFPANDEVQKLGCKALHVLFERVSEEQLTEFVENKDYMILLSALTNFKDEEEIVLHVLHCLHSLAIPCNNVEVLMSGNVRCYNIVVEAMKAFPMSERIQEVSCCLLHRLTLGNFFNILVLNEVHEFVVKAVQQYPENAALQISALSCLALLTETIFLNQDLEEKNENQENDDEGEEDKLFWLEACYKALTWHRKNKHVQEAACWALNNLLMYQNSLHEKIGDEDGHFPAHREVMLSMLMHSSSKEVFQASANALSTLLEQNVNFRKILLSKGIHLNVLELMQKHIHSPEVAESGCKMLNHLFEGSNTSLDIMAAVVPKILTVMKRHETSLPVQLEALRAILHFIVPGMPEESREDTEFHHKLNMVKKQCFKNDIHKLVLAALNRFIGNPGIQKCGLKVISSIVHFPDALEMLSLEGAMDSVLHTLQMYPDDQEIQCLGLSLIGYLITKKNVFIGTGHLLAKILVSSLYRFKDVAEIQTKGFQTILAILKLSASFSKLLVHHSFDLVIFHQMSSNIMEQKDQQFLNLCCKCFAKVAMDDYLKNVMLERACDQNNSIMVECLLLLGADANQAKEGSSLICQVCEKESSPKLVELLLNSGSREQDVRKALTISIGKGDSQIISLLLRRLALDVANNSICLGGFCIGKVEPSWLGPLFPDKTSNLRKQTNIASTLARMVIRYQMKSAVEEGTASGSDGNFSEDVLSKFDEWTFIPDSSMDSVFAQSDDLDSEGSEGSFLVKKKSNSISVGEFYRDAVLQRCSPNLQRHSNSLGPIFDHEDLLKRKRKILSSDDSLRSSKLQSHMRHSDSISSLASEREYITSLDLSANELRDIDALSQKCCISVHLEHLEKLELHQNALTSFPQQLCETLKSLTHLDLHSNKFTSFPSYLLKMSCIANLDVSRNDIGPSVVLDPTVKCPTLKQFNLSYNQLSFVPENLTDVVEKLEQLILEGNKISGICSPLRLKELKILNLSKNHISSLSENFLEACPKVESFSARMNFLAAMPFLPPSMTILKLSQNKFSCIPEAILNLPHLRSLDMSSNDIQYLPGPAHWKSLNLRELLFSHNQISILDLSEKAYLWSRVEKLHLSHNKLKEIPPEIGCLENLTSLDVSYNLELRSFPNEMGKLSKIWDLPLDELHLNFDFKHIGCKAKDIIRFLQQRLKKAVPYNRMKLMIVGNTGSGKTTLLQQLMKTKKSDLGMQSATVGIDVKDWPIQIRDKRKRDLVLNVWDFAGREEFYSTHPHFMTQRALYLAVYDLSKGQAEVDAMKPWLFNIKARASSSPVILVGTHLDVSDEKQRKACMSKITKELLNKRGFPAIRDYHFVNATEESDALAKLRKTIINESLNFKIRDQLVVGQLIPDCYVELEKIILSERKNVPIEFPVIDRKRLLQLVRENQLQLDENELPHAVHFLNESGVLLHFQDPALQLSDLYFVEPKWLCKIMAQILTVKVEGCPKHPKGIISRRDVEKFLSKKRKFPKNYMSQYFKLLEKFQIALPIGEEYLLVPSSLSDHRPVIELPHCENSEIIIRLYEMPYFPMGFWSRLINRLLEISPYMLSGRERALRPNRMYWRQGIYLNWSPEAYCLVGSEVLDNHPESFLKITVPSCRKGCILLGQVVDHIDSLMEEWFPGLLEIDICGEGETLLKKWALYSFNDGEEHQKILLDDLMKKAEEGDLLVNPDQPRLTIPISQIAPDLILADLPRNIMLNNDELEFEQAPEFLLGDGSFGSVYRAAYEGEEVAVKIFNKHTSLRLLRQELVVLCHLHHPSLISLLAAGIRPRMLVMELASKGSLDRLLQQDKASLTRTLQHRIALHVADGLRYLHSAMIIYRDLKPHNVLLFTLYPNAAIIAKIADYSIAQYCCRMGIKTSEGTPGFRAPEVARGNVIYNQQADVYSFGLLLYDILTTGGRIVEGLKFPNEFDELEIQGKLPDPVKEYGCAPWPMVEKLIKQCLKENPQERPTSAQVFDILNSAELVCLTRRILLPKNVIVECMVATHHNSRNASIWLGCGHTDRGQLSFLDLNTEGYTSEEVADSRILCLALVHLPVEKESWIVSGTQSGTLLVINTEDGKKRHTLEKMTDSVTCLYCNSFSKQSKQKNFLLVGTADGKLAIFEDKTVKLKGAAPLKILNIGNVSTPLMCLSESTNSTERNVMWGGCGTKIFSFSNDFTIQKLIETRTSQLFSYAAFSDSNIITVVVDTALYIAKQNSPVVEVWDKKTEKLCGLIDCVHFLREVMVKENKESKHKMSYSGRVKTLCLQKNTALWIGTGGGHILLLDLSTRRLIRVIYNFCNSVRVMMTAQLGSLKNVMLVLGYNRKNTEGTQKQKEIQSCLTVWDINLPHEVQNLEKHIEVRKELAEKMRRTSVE
T1 sequence (Q5S007 whole entry): as the sequence (Q5S007 whole entry G2019S) above, with S2019G counted along it

| Structure (SMILES) | Dmax (wildtype LRRK2; [1]) [%] | DC50 (wildtype LRRK2; [1]) [nM] | DC50 (G2019S LRRK2; [2]) [nM] | Dmax (G2019S LRRK2; [2]) [%] | DC50 (wildtype LRRK2; [3]) [nM] | DC50 (G2019S LRRK2; [4]) [nM] | Dmax (wildtype LRRK2; [3]) [%] | Dmax (G2019S LRRK2; [4]) [%] |
| --- | --- | --- | --- | --- | --- | --- | --- | --- |
| CC1(Oc2ccc3[nH]nc(-c4cc(N5CCN(Cc6cccc(CN7CCN(c8ccc9c(c8)C(=O)N(C8CCC(=O)NC8=O)C9=O)CC7)c6)CC5)ncn4)c3c2)CC1 (centres unmarked) [Compound 170, 2-(2,6-dioxo-3-piperidyl)-5-[4-[[3-[[4-[6-[5-(1-methylcyclopropoxy)-2H-indazol-3-yl]pyrimidin-4-yl]piperazin-1-yl]methyl]phenyl]methyl]piperazin-1-yl]isoindoline-1,3-dione] | – | – | – | – | ≥ 100 | ≥ 100 | – | – |
| CC1(Oc2ccc3[nH]nc(-c4ccnc(N5CCN(C[C@H]6CC[C@H](CN7CCN(c8ccc9c(c8)C(=O)N(C8CCC(=O)NC8=O)C9=O)CC7)CC6)CC5)c4)c3c2)CC1 (some centres unmarked) [Compound 102, 2-(2,6-dioxopiperidin-3-yl)-5-(4-{[(1r,4r)-4-[(4-{4-[5-(1-methylcyclopropoxy)-1H-indazol-3-yl]pyridin-2-yl}piperazin-1-yl)methyl]cyclohexyl]methyl}piperazin-1-yl)-2,3-dihydro-1H-isoindole-1,3-dione] | < 50 | 10 to 50 | 10 to 50 | < 50 | – | – | – | – |
| CC1(Oc2ccc3[nH]nc(-c4ccnc(N5CC6(CCN6CC6CCN(CC7CCN(c8ccc9c(c8)C(=O)N(C8CCC(=O)NC8=O)C9=O)CC7)CC6)C5)c4)c3c2)CC1 (centres unmarked) [Compound 163, 2-(2,6-dioxo-3-piperidyl)-5-[4-[[4-[[6-[4-[5-(1-methylcyclopropoxy)-1H-indazol-3-yl]-2-pyridyl]-1,6-diazaspiro[3.3]heptan-1-yl]methyl]-1-piperidyl]methyl]-1-piperidyl]isoindoline-1,3-dione] | – | – | – | – | 10 to 50 | 10 to 50 | < 50 | < 50 |
| CC1(Oc2ccc3[nH]nc(-c4ccnc(N5CC(CCC6CCN(CC7CCN(c8ccc9c(c8)C(=O)N(C8CCC(=O)NC8=O)C9=O)CC7)CC6)C5)c4)c3c2)CC1 (centres unmarked) [Compound 165, 2-(2,6-dioxo-3-piperidyl)-5-[4-[[4-[2-[1-[4-[5-(1-methylcyclopropoxy)-1H-indazol-3-yl]-2-pyridyl]azetidin-3-yl]ethyl]-1-piperidyl]methyl]-1-piperidyl]isoindoline-1,3-dione] | – | – | – | – | < 10 | < 10 | < 50 | 50 to 70 |
| C[C@H]1CN(c2cc(-c3n[nH]c4ccc(OC5(C)CC5)cc34)ncn2)CCN1CC1CN(CC2CCN(c3ccc4c(c3)C(=O)N(C3CCC(=O)NC3=O)C4=O)CC2)C1 (stereo partly drawn) [Compound 122, 2-(2,6-dioxo-3-piperidyl)-5-[4-[[3-[[(2S)-2-methyl-4-[6-[5-(1-methylcyclopropoxy)-1H-indazol-3-yl]pyrimidin-4-yl]piperazin-1-yl]methyl]azetidin-1-yl]methyl]-1-piperidyl]isoindoline-1,3-dione] | 50 to 70 | < 10 | < 10 | 50 to 70 | – | – | – | – |
| C[C@H]1CN(c2cc(-c3n[nH]c4ccc(OC5(C)CC5)cc34)ncn2)CCN1C[C@@H]1CCN(CC2CCN(c3ccc4c(c3)C(=O)N(C3CCC(=O)NC3=O)C4=O)CC2)C1 (stereo partly drawn) [Compound 113, 2-(2,6-dioxopiperidin-3-yl)-5-(4-{[(3R)-3-{[(2S)-2-methyl-4-{6-[5-(1-methylcyclopropoxy)-1H-indazol-3-yl]pyrimidin-4-yl}piperazin-1-yl]methyl}pyrrolidin-1-yl]methyl}piperidin-1-yl)-2,3-dihydro-1H-isoindole-1,3-dione] | 50 to 70 | < 10 | < 10 | < 50 | – | – | – | – |
| CC1(Oc2ccc3[nH]nc(-c4cc(N5CCC(CN6CCN(CC7CCN(c8ccc9c(c8)C(=O)N(C8CCC(=O)NC8=O)C9=O)CC7)CC6)CC5)ncc4F)c3c2)CC1 (centres unmarked) [Compound 99, 2-(2,6-dioxo-3-piperidyl)-5-[4-[[4-[[1-[5-fluoro-4-[5-(1-methylcyclopropoxy)-1H-indazol-3-yl]-2-pyridyl]-4-piperidyl]methyl]piperazin-1-yl]methyl]-1-piperidyl]isoindoline-1,3-dione] | < 50 | 50 to 100 | 50 to 100 | < 50 | – | – | – | – |

The remaining lines, values ahead:

| Dmax (wildtype LRRK2; [1]) [%] | DC50 (wildtype LRRK2; [1]) [nM] | DC50 (G2019S LRRK2; [2]) [nM] | Dmax (G2019S LRRK2; [2]) [%] | DC50 (wildtype LRRK2; [3]) [nM] | DC50 (G2019S LRRK2; [4]) [nM] | Dmax (wildtype LRRK2; [3]) [%] | Dmax (G2019S LRRK2; [4]) [%] | Structure (SMILES) |
| --- | --- | --- | --- | --- | --- | --- | --- | --- |
| 50 to 70 | < 10 | < 10 | 50 to 70 | – | – | – | – | CC1(Oc2ccc3n[nH]c(-c4cc(N5CCC(CN6CCN(CC7(F)CN(c8ccc9c(c8)C(=O)N(C8CCC(=O)NC8=O)C9=O)C7)CC6)CC5)ncn4)c3c2)CC1 (centres unmarked) [Compound 134, 2-(2,6-dioxo-3-piperidyl)-5-[3-fluoro-3-[[4-[[1-[6-[5-(1-methylcyclopropoxy)-2H-indazol-3-yl]pyrimidin-4-yl]-4-piperidyl]methyl]piperazin-1-yl]methyl]azetidin-1-yl]isoindoline-1,3-dione] |
| 50 to 70 | < 10 | < 10 | 50 to 70 | – | – | – | – | CC1(Oc2ccc3n[nH]c(-c4cc(N5CCN(CC6(F)CCN(C(=O)C7CN(c8ccc9c(c8)C(=O)N(C8CCC(=O)NC8=O)C9=O)C7)CC6)CC5)ncn4)c3c2)CC1 (centres unmarked) [Compound 136, 2-(2,6-dioxo-3-piperidyl)-5-[3-[4-fluoro-4-[[4-[6-[5-(1-methylcyclopropoxy)-2H-indazol-3-yl]pyrimidin-4-yl]piperazin-1-yl]methyl]piperidine-1-carbonyl]azetidin-1-yl]isoindoline-1,3-dione] |
| 50 to 70 | < 10 | < 10 | 50 to 70 | – | – | – | – | CC1(Oc2ccc3n[nH]c(-c4cc(N5CCN(CC6(F)CCN(C(=O)C7CCN(c8ccc9c(c8)C(=O)N(C8CCC(=O)NC8=O)C9=O)CC7)CC6)CC5)ncn4)c3c2)CC1 (centres unmarked) [Compound 96, 2-(2,6-dioxo-3-piperidyl)-5-[4-[4-fluoro-4-[[4-[6-[5-(1-methylcyclopropoxy)-1H-indazol-3-yl]pyrimidin-4-yl]piperazin-1-yl]methyl]piperidine-1-carbonyl]-1-piperidyl]isoindoline-1,3-dione] |
| – | – | – | – | < 10 | < 10 | 50 to 70 | < 50 | CC1(Oc2ccc3[nH]nc(-c4cc(N5CCN(C[C@@H]6CN(CC7CCN(c8ccc9c(c8)C(=O)N(C8CCC(=O)NC8=O)C9=O)CC7)CCO6)CC5)ncn4)c3c2)CC1 (stereo partly drawn) [Compound 156, 2-(2,6-dioxo-3-piperidyl)-5-[4-[[(2R)-2-[[4-[6-[5-(1-methylcyclopropoxy)-1H-indazol-3-yl]pyrimidin-4-yl]piperazin-1-yl]methyl]morpholin-4-yl]methyl]-1-piperidyl]isoindoline-1,3-dione] |
| < 50 | < 10 | < 10 | 50 to 70 | – | – | – | – | CC1(Oc2ccc3[nH]nc(-c4cc(N5CCN(CC6CCN(C(=O)C7CCN(c8ccc9c(c8)C(=O)N(C8CCC(=O)NC8=O)C9=O)CC7)CC6)CC5)ncn4)c3c2)CC1 (centres unmarked) [Compound 90, 2-(2,6-dioxopiperidin-3-yl)-5-(4-{4-[(4-{6-[5-(1-methylcyclopropoxy)-1H-indazol-3-yl]pyrimidin-4-yl}piperazin-1-yl)methyl]piperidine-1-carbonyl}piperidin-1-yl)-2,3-dihydro-1H-isoindole-1,3-dione] |
| 50 to 70 | 50 to 100 | 50 to 100 | < 50 | – | – | – | – | CC1(Oc2ccc3[nH]nc(-c4cc(N5C[C@@H]6[C@H](CN7CCN(CC8CCN(c9ccc%10c(c9)C(=O)N(C9CCC(=O)NC9=O)C%10=O)CC8)CC7)[C@@H]6C5)ncn4)c3c2)CC1 (some centres unmarked) [Compound 74, 2-(2,6-dioxo-3-piperidyl)-5-[4-[[4-[[(r, 5s, 6s)-3-[6-[5-(1-methylcyclopropoxy)-1H-indazol-3-yl]pyrimidin-4-yl]-3-azabicyclo[3.1.0]hexan-6-yl]methyl]piperazin-1-yl]methyl]-1-piperidyl]isoindoline-1,3-dione] |
| 50 to 70 | < 10 | < 10 | ≥ 70 | – | – | – | – | CC1(Oc2ccc3[nH]nc(-c4cc(N5CCC(CN6CCC(F)(CN7CCN(c8ccc9c(c8)C(=O)N(C8CCC(=O)NC8=O)C9=O)CC7)CC6)CC5)ncn4)c3c2)CC1 (centres unmarked) [Compound 83, 2-(2,6-dioxo-3-piperidyl)-5-[4-[[4-fluoro-1-[[1-[6-[5-(1-methylcyclopropoxy)-1H-indazol-3-yl]pyrimidin-4-yl]-4-piperidyl]methyl]-4-piperidyl]methyl]piperazin-1-yl]isoindoline-1,3-dione] |
| ≥ 70 | < 10 | < 10 | ≥ 70 | – | – | – | – | CC1(Oc2ccc3n[nH]c(-c4cc(N5CCC(CN6CCC(CN7CCN(c8ccc9c(c8)C(=O)N(C8CCC(=O)NC8=O)C9=O)CC7)CC6)CC5)ncn4)c3c2)CC1 (centres unmarked) [Compound 67, 2-(2,6-dioxo-3-piperidyl)-5-[4-[[1-[[1-[6-[5-(1-methylcyclopropoxy)-2H-indazol-3-yl]pyrimidin-4-yl]-4-piperidyl]methyl]-4-piperidyl]methyl]piperazin-1-yl]isoindoline-1,3-dione] |
| < 50 | < 10 | < 10 | 50 to 70 | – | – | – | – | CC1(Oc2ccc3[nH]nc(-c4cc(N5CCN(CC6(F)CCN(CC7CCN(c8ccc9c(c8)C(=O)N(C8CCC(=O)NC8=O)C9=O)CC7)CC6)CC5)ncn4)c3c2)CC1 (centres unmarked) [Compound 79, 2-(2,6-dioxo-3-piperidyl)-5-[4-[[4-fluoro-4-[[4-[6-[5-(1-methylcyclopropoxy)-1H-indazol-3-yl]pyrimidin-4-yl]piperazin-1-yl]methyl]-1-piperidyl]methyl]-1-piperidyl]isoindoline-1,3-dione] |
